In patent US7202280B2, “Methods for the treatment and prevention of pancreatitis and for induction of liver regeneration” (priority 2002, dated 2007):

Legend:
[1] = tested on: syngenic and UKU181 transgenic mice; assay: Plasma α-amylase and ALAT in syngenic and transgenic mice after analogue injection; type: in vivo, mouse; conditions: 24 h before sacrifice
Protocol: (§1) α-methylspermidine, Bis-α-methylspermine and α-methylspermine were administered in saline. […] The data are expressed as means ±S.D. For statistical analysis, the two-tailed Student's t test was used.

[2] = tested on: syngenic and metallothionein-SSAT mice; assay: Hepatic, pancreatic and renal polyamine concentration in syngenic and metallothionein-SSAT mice after analogue; type: in vivo, mouse; conditions: Sg (syngenic) mice, 24 h before sacrifice
Protocol: as §1

[3] = Tg (transgenic) mice, 12.5 mg/kg
[4] = Tg (transgenic) mice, 37.5 mg/kg

Structure (SMILES): CC(N)CCNCCCCNCCC(C)N (stereo not drawn) [bis-α-methylspermine, 1,12-dimethylspermine]
- Plasma ALAT ([1]; Sg (syngenic) mice, 12.5 mg/kg): 49.33 U/dm^3
- Plasma α-amylase ([1]; Sg (syngenic) mice, 12.5 mg/kg): 3167.33 U/dm^3
- Plasma ALAT ([1]; Sg (syngenic) mice, 25 mg/kg): 57.67 U/dm^3
- Plasma α-amylase ([1]; Sg (syngenic) mice, 25 mg/kg): 2931.00 U/dm^3
- Plasma ALAT ([1]; Sg (syngenic) mice, 37.5 mg/kg): 35.67 U/dm^3
- Plasma α-amylase ([1]; Sg (syngenic) mice, 37.5 mg/kg): 2827.00 U/dm^3
- Plasma ALAT ([1]; Sg (syngenic) mice, 50 mg/kg): 62.00 U/dm^3
- Plasma α-amylase ([1]; Sg (syngenic) mice, 50 mg/kg): 2715.33 U/dm^3
- Plasma ALAT [1, 3]: 50.67 U/dm^3
- Plasma α-amylase [1, 3]: 2822.67 U/dm^3
- Plasma ALAT ([1]; Tg (transgenic) mice, 25 mg/kg): 45.33 U/dm^3
- Plasma α-amylase ([1]; Tg (transgenic) mice, 25 mg/kg): 3242.33 U/dm^3
- Plasma ALAT [1, 4]: 31.00 U/dm^3
- Plasma α-amylase [1, 4]: 2540.00 U/dm^3
- Plasma ALAT ([1]; Tg (transgenic) mice, 50 mg/kg): 60.00 U/dm^3
- Plasma α-amylase ([1]; Tg (transgenic) mice, 50 mg/kg): 2886.00 U/dm^3
- hepatic concentration, Bis-α-Methylspermine ([2]; 12.5 mg/kg): 159.88 pmoles/mg tissue wet weight
- hepatic polyamine concentration, N^8-Acetylspermidine ([2]; 12.5 mg/kg): 0.75 pmoles/mg tissue wet weight
- hepatic polyamine concentration, Putrescine ([2]; 12.5 mg/kg): 92.42 pmoles/mg tissue wet weight
- hepatic polyamine concentration, Spermidine ([2]; 12.5 mg/kg): 927.28 pmoles/mg tissue wet weight
- hepatic polyamine concentration, Spermine ([2]; 12.5 mg/kg): 708.04 pmoles/mg tissue wet weight
- pancreatic concentration, Bis-α-Methylspermine ([2]; 12.5 mg/kg): 259.30 ± 10.04 pmoles/mg tissue wet weight
- pancreatic polyamine concentration, N^8-Acetylspermidine ([2]; 12.5 mg/kg): 60.41 pmoles/mg tissue wet weight
- pancreatic polyamine concentration, Putrescine ([2]; 12.5 mg/kg): 298.55 ± 75.14 *^+ pmoles/mg tissue wet weight
- pancreatic polyamine concentration, Spermidine ([2]; 12.5 mg/kg): 6575.15 ± 614.21 ^+ pmoles/mg tissue wet weight
- pancreatic polyamine concentration, Spermine ([2]; 12.5 mg/kg): 981.28 ± 201.81 ^+ pmoles/mg tissue wet weight
- renal concentration, Bis-α-Methylspermine ([2]; 12.5 mg/kg): 259.30 pmoles/mg tissue wet weight
- renal polyamine concentration, N^1-Acetylspermidine ([2]; 12.5 mg/kg): 33.17 pmoles/mg tissue wet weight
- renal polyamine concentration, N^8-Acetylspermidine ([2]; 12.5 mg/kg): 17.62 ± 6.43 pmoles/mg tissue wet weight
- renal polyamine concentration, Putrescine ([2]; 12.5 mg/kg): 142.47 pmoles/mg tissue wet weight
- renal polyamine concentration, Spermidine ([2]; 12.5 mg/kg): 246.29 pmoles/mg tissue wet weight
- renal polyamine concentration, Spermine ([2]; 12.5 mg/kg): 456.65 pmoles/mg tissue wet weight
- hepatic concentration, Bis-α-Methylspermine ([2]; 25 mg/kg): 317.22 pmoles/mg tissue wet weight
- hepatic polyamine concentration, N^8-Acetylspermidine ([2]; 25 mg/kg): 2.38 pmoles/mg tissue wet weight
- hepatic polyamine concentration, Putrescine ([2]; 25 mg/kg): 73.69 pmoles/mg tissue wet weight
- hepatic polyamine concentration, Spermidine ([2]; 25 mg/kg): 879.17 pmoles/mg tissue wet weight
- hepatic polyamine concentration, Spermine ([2]; 25 mg/kg): 699.86 pmoles/mg tissue wet weight
- pancreatic concentration, Bis-α-Methylspermine ([2]; 25 mg/kg): 343.17 ± 35.11 pmoles/mg tissue wet weight
- pancreatic polyamine concentration, Putrescine ([2]; 25 mg/kg): 467.21 ± 419.85^++ pmoles/mg tissue wet weight
- pancreatic polyamine concentration, Spermidine ([2]; 25 mg/kg): 5733.90 ± 300.80 ^+ pmoles/mg tissue wet weight
- pancreatic polyamine concentration, Spermine ([2]; 25 mg/kg): 528.55 ± 241.57 ^+ pmoles/mg tissue wet weight
- renal concentration, Bis-α-Methylspermine ([2]; 25 mg/kg): 343.17 pmoles/mg tissue wet weight
- renal polyamine concentration, N^1-Acetylspermidine ([2]; 25 mg/kg): 28.39 pmoles/mg tissue wet weight
- renal polyamine concentration, N^8-Acetylspermidine ([2]; 25 mg/kg): 17.70 ± 10.63 pmoles/mg tissue wet weight
- renal polyamine concentration, Putrescine ([2]; 25 mg/kg): 87.46 pmoles/mg tissue wet weight
- renal polyamine concentration, Spermidine ([2]; 25 mg/kg): 257.13 pmoles/mg tissue wet weight
- renal polyamine concentration, Spermine ([2]; 25 mg/kg): 459.99 pmoles/mg tissue wet weight
- hepatic concentration, Bis-α-Methylspermine ([2]; 37.5 mg/kg): 283.40 pmoles/mg tissue wet weight
- hepatic polyamine concentration, N^1-Acetylspermidine ([2]; 37.5 mg/kg): 14.57 pmoles/mg tissue wet weight
- hepatic polyamine concentration, N^8-Acetylspermidine ([2]; 37.5 mg/kg): 2.10 pmoles/mg tissue wet weight
- hepatic polyamine concentration, Putrescine ([2]; 37.5 mg/kg): 96.27 pmoles/mg tissue wet weight
- hepatic polyamine concentration, Spermidine ([2]; 37.5 mg/kg): 772.68 pmoles/mg tissue wet weight
- hepatic polyamine concentration, Spermine ([2]; 37.5 mg/kg): 754.59 pmoles/mg tissue wet weight
- pancreatic concentration, Bis-α-Methylspermine ([2]; 37.5 mg/kg): 415.40 ± 92.86 pmoles/mg tissue wet weight
- pancreatic polyamine concentration, N^1-Acetylspermidine ([2]; 37.5 mg/kg): 123.67 pmoles/mg tissue wet weight
- pancreatic polyamine concentration, N^8-Acetylspermidine ([2]; 37.5 mg/kg): 55.34 pmoles/mg tissue wet weight
- pancreatic polyamine concentration, Putrescine ([2]; 37.5 mg/kg): 233.06 ± 45.81 *^+ pmoles/mg tissue wet weight
- pancreatic polyamine concentration, Spermidine ([2]; 37.5 mg/kg): 5997.63 ± 24.26 ^+ pmoles/mg tissue wet weight
- pancreatic polyamine concentration, Spermine ([2]; 37.5 mg/kg): 708.66 ± 179.23 ^++ pmoles/mg tissue wet weight
- renal concentration, Bis-α-Methylspermine ([2]; 37.5 mg/kg): 415.40 pmoles/mg tissue wet weight
- renal polyamine concentration, N^1-Acetylspermidine ([2]; 37.5 mg/kg): 28.73 pmoles/mg tissue wet weight
- renal polyamine concentration, N^8-Acetylspermidine ([2]; 37.5 mg/kg): 15.95 ± 6.92 pmoles/mg tissue wet weight
- renal polyamine concentration, Putrescine ([2]; 37.5 mg/kg): 93.95 pmoles/mg tissue wet weight
- renal polyamine concentration, Spermidine ([2]; 37.5 mg/kg): 289.83 pmoles/mg tissue wet weight
- renal polyamine concentration, Spermine ([2]; 37.5 mg/kg): 513.58 pmoles/mg tissue wet weight
- hepatic concentration, Bis-α-Methylspermine ([2]; 50 mg/kg): 379.77 pmoles/mg tissue wet weight
- hepatic polyamine concentration, N^8-Acetylspermidine ([2]; 50 mg/kg): 8.72 pmoles/mg tissue wet weight
- hepatic polyamine concentration, Putrescine ([2]; 50 mg/kg): 52.40 pmoles/mg tissue wet weight
- hepatic polyamine concentration, Spermidine ([2]; 50 mg/kg): 688.44 pmoles/mg tissue wet weight
- hepatic polyamine concentration, Spermine ([2]; 50 mg/kg): 687.71 pmoles/mg tissue wet weight
- pancreatic concentration, Bis-α-Methylspermine ([2]; 50 mg/kg): 459.26 ± 18.65 pmoles/mg tissue wet weight
- pancreatic polyamine concentration, N^8-Acetylspermidine ([2]; 50 mg/kg): 82.23 pmoles/mg tissue wet weight
- pancreatic polyamine concentration, Putrescine ([2]; 50 mg/kg): 297.48 ± 123.94^++ pmoles/mg tissue wet weight
